According to PubChem BioAssay (NCI):
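Interpolation was linear, between the two tested concentrations surrounding the appropriate level; five concentrations were tested over 48 hours in 96-well plates. The concentration for full growth arrest is given as TGI.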

What was measured:
Experiment in all cases: inhibition of tumour cell growth, NCI panel, 48 h
HT29 colon = test system: HT29 colon
HOP-92 NSCLC = test system: HOP-92 NSCLC
SF-268 CNS = test system: SF-268 CNS
NCI-H522 lung = test system: NCI-H522 lung
NCI-H23 lung = test system: NCI-H23 lung
HCT-116 colon = test system: HCT-116 colon
SR leukemia = test system: SR leukemia
786-0 renal = test system: 786-0 renal
MOLT-4 leukemia = test system: MOLT-4 leukemia
RPMI-8226 leukemia = test system: RPMI-8226 leukemia
NCI-H226 lung = test system: NCI-H226 lung
OVCAR-3 ovarian = test system: OVCAR-3 ovarian
DU-145 prostate = test system: DU-145 prostate
UO-31 renal = test system: UO-31 renal
SK-MEL-28 melanoma = test system: SK-MEL-28 melanoma
MDA-MB-231 breast = test system: MDA-MB-231 breast
SK-MEL-2 melanoma = test system: SK-MEL-2 melanoma
OVCAR-4 ovarian = test system: OVCAR-4 ovarian
T-47D breast = test system: T-47D breast
UACC-257 melanoma = test system: UACC-257 melanoma
SF-295 CNS = test system: SF-295 CNS
HOP-62 NSCLC = test system: HOP-62 NSCLC
IGROV1 ovarian = test system: IGROV1 ovarian
SN12C renal = test system: SN12C renal
PC-3 prostate = test system: PC-3 prostate
UACC-62 melanoma = test system: UACC-62 melanoma
TK-10 renal = test system: TK-10 renal
MALME-3M melanoma = test system: MALME-3M melanoma
SK-OV-3 ovarian = test system: SK-OV-3 ovarian
LOX IMVI melanoma = test system: LOX IMVI melanoma
NCI-H460 lung = test system: NCI-H460 lung
OVCAR-8 ovarian = test system: OVCAR-8 ovarian
EKVX NSCLC = test system: EKVX NSCLC
SW-620 colon = test system: SW-620 colon
BT-549 breast = test system: BT-549 breast
HCT-15 colon = test system: HCT-15 colon
A498 renal = test system: A498 renal
M14 melanoma = test system: M14 melanoma
MCF7 breast = test system: MCF7 breast
K-562 leukemia = test system: K-562 leukemia
MDA-N = test system: MDA-N
SNB-19 CNS = test system: SNB-19 CNS
HS 578T breast = test system: HS 578T breast
NCI/ADR-RES ovarian = test system: NCI/ADR-RES ovarian
OVCAR-5 ovarian = test system: OVCAR-5 ovarian
A549 NSCLC = test system: A549 NSCLC
CCRF-CEM leukemia = test system: CCRF-CEM leukemia
HCC-2998 colon = test system: HCC-2998 colon
CAKI-1 renal = test system: CAKI-1 renal
SF-539 CNS = test system: SF-539 CNS
U251 CNS = test system: U251 CNS
KM12 colon = test system: KM12 colon
MDA-MB-435 = test system: MDA-MB-435
ACHN renal = test system: ACHN renal
RXF 393 renal = test system: RXF 393 renal
SK-MEL-5 melanoma = test system: SK-MEL-5 melanoma
COLO 205 colon = test system: COLO 205 colon
SNB-75 CNS = test system: SNB-75 CNS

## O=C1NC(c2ccccc2)N=C2Oc3ccccc3C=C12 (stereo not drawn)
HT29 colon
  TGI: > 23.6 µM
HOP-92 NSCLC
  TGI: > 100 µM
SF-268 CNS
  TGI: > 84.7 µM
NCI-H522 lung
  TGI: > 100 µM
NCI-H23 lung
  TGI: > 100 µM
HCT-116 colon
  TGI: > 100 µM
SR leukemia
  TGI: > 100 µM
786-0 renal
  TGI: > 39 µM
MOLT-4 leukemia
  TGI: > 100 µM
RPMI-8226 leukemia
  TGI: > 100 µM
NCI-H226 lung
  TGI: 12.8 µM
OVCAR-3 ovarian
  TGI: > 100 µM
DU-145 prostate
  TGI: > 100 µM
UO-31 renal
  TGI: > 100 µM
SK-MEL-28 melanoma
  TGI: > 100 µM
MDA-MB-231 breast
  TGI: > 31.6 µM
SK-MEL-2 melanoma
  TGI: > 100 µM
OVCAR-4 ovarian
  TGI: > 100 µM
T-47D breast
  TGI: > 100 µM
UACC-257 melanoma
  TGI: > 100 µM
SF-295 CNS
  TGI: > 100 µM
HOP-62 NSCLC
  TGI: > 66.7 µM
IGROV1 ovarian
  TGI: > 74.4 µM
SN12C renal
  TGI: > 100 µM
PC-3 prostate
  TGI: > 100 µM
UACC-62 melanoma
  TGI: > 100 µM
TK-10 renal
  TGI: > 100 µM
MALME-3M melanoma
  TGI: > 100 µM
SK-OV-3 ovarian
  TGI: > 100 µM
LOX IMVI melanoma
  TGI: > 31.6 µM
NCI-H460 lung
  TGI: > 43.7 µM
OVCAR-8 ovarian
  TGI: > 100 µM
EKVX NSCLC
  TGI: > 100 µM
SW-620 colon
  TGI: > 100 µM
BT-549 breast
  TGI: > 100 µM
HCT-15 colon
  TGI: > 100 µM
A498 renal
  TGI: > 81.8 µM
M14 melanoma
  TGI: > 31.6 µM
MCF7 breast
  TGI: > 100 µM
K-562 leukemia
  TGI: > 100 µM
MDA-N
  TGI: 1.12 µM
SNB-19 CNS
  TGI: > 100 µM
HS 578T breast
  TGI: 7.06 µM
NCI/ADR-RES ovarian
  TGI: > 31.3 µM
OVCAR-5 ovarian
  TGI: > 100 µM
A549 NSCLC
  TGI: > 100 µM
CCRF-CEM leukemia
  TGI: 2650 nM
HCC-2998 colon
  TGI: 238 nM
CAKI-1 renal
  TGI: 420 nM
SF-539 CNS
  TGI: 17.6 µM
U251 CNS
  TGI: > 100 µM
KM12 colon
  TGI: > 22.8 µM
MDA-MB-435
  TGI: 0.138 µM
ACHN renal
  TGI: > 100 µM
RXF 393 renal
  TGI: > 100 µM
SK-MEL-5 melanoma
  TGI: > 100 µM

## COc1cc(C2S/C(=C/c3ccccc3)C(=O)N2c2ccccc2Cl)cc(OC)c1OC (stereo not drawn)
HT29 colon
  TGI: 47.5 µM
HOP-92 NSCLC
  TGI: > 100 µM
SF-268 CNS
  TGI: > 100 µM
NCI-H522 lung
  TGI: 39.2 µM
NCI-H23 lung
  TGI: > 100 µM
HCT-116 colon
  TGI: 62.6 µM
MOLT-4 leukemia
  TGI: > 100 µM
NCI-H226 lung
  TGI: > 100 µM
UO-31 renal
  TGI: > 100 µM
SK-MEL-28 melanoma
  TGI: > 100 µM
MDA-MB-231 breast
  TGI: 67.3 µM
SK-MEL-2 melanoma
  TGI: 39.7 µM
OVCAR-4 ovarian
  TGI: > 100 µM
T-47D breast
  TGI: 32.1 µM
UACC-257 melanoma
  TGI: > 100 µM
SF-295 CNS
  TGI: > 100 µM
HOP-62 NSCLC
  TGI: > 100 µM
SN12C renal
  TGI: 62.1 µM
PC-3 prostate
  TGI: 58.2 µM
UACC-62 melanoma
  TGI: > 100 µM
TK-10 renal
  TGI: > 100 µM
MALME-3M melanoma
  TGI: 82.1 µM
COLO 205 colon
  TGI: > 100 µM
SK-OV-3 ovarian
  TGI: > 100 µM
LOX IMVI melanoma
  TGI: 44.9 µM
OVCAR-8 ovarian
  TGI: 49.8 µM
EKVX NSCLC
  TGI: 50.8 µM
BT-549 breast
  TGI: > 100 µM
HCT-15 colon
  TGI: > 100 µM
A498 renal
  TGI: > 100 µM
M14 melanoma
  TGI: 60.5 µM
MCF7 breast
  TGI: > 100 µM
MDA-N
  TGI: 84.6 µM
SNB-19 CNS
  TGI: > 100 µM
HS 578T breast
  TGI: 47.5 µM
NCI/ADR-RES ovarian
  TGI: 94.7 µM
OVCAR-5 ovarian
  TGI: > 100 µM
A549 NSCLC
  TGI: > 100 µM
SNB-75 CNS
  TGI: 29.6 µM
HCC-2998 colon
  TGI: > 100000 nM
CAKI-1 renal
  TGI: > 100000 nM
U251 CNS
  TGI: 55.9 µM
KM12 colon
  TGI: > 100 µM
MDA-MB-435
  TGI: 56.7 µM
ACHN renal
  TGI: > 100 µM
RXF 393 renal
  TGI: 45.1 µM
SK-MEL-5 melanoma
  TGI: 75.1 µM
